Test results reported in US5880116A, “Use of celastrol to treat alzheimer's disease” (Neurocal International, priority 1996, dated 1999).

Tests used:
[1] = tested on: patients clinically diagnosed with early AD; settings: six months; cited from earlier work
agitation and aggression = settings: in vivo; cited from earlier work
patients with AD = settings: a subgroup of patients with AD; cited from earlier work
AD patients = settings: file history of US 5,192,753; cited from earlier work
[2] = tested on: rats (psychomotor activity); assay: Open-field psychomotor activity (PMA, VA, FF) in OUCEM-86 electronic maze; assay type: in vivo, rat (female Sprague-Dawley); settings: for PMA: Psychomotor activity: N = 6, mean ± SD, 30 min recording
Procedure: (§1) Celastrol or vehicle was administered to rats as described below. Female Sprague-Dawley rats (obtained from Santiago University, Santiago de Compostela, Spain) were about 3 months old and weighed 200-250 g. The animals were maintained under standard conditions at the Euroespes Institute laboratory facilities.
(§2) The celastrol formulation was purchased in China in the form of pills under the name of "Leigongtengpian." The dose is expressed as the content of celastrol. The celastrol was dissolved in DMSO (35 μg/mL) and then adjusted to the appropriate concentration with 0.9% saline. Doses of 1.4, 7 and 35 μg/kg were administered intraperitoneally (i.p.) in a total injection volume of 2 ml/kg.
Immediately after injection, the animals were placed in the Osaka University Computerized Electronic Maze system (OUCEM-86, obtained from Bio Medica, Ltd., Osaka, Japan). The system, as previously described by Cacabelos et al (Prog. Med. 7:763-773, 1987), is integrated with the following components: A Programmable Electronic Platform (PEP) which measures 62 cm×62 cm and is equipped with 48 photo beam sensors (OPX-T30) to detect the three-dimensional position (four-footed, two-footed or rearing, and jumping) of the test animal; a Programming Panel (PP) (Model BECM-0064) for paradigm simulation; a Shock Generator Scrambler (SGS)(Model BSG-1065) to apply continuous or discontinuous electric currents to the PEP; a Control Station interface device to automatically computerize behavioral parameters; and a Computerized System (NEC PC-9801F) for data processing and experimental setting.
Tests were conducted in an open-field paradigm (where the rat can move freely) as previously described (Cacabelos et al. 1987) where psychomotor activity (PMA) was automatically recorded. Total PMA is the sum of horizontal and vertical movements. Horizontal movements are four-footed movements (FF). Vertical activity (VA) includes jumping and rearing (or two-footed) movements. The temporal profile of PMA during the 30 minutes of recording was also studied. PMA, FF and VA were expressed as total inputs/outputs (I/O). In general, increases in PMA, mainly in VA, are observed in situations of stress. A global increase in PMA is also found under treatment with stimulants and in rats with brain cholinergic deficits. Conversely, decreases in PMA are typical of sedative drugs, for instance.
(§3) Data were statistically analyzed by the ANOVA and the Duncan test for multiple comparisons. Results were expressed as mean ± standard deviation (SD) in tables and as mean ± standard error of […] (SEM) in figures.

[3] = tested on: rats (passive avoidance learning); assay: Passive avoidance behavior (PAB) learning, fixed-ratio maze paradigm; assay type: in vivo, rat (female Sprague-Dawley); settings: for Av: number of avoidances during 10 trials / La: mean latency time per trial: N = 6, mean ± SD
Procedure: as §1, §2
Two hours after treatment, rats were tested for passive avoidance behavior in a PAB fixed-ratio maze paradigm, in which they learned to stay on a neutral platform (18×18 cm) in order to avoid a continuous electric footshock in the surrounding area during 10 trials (30 seconds each). The inter-trial interval was 30 seconds. The number of complete avoidances during 10 trials (Av; successful trials in which rat remains in the neutral area the entire 30-second period) and the latency per trial (La; time spent in the neutral platform before leaving it in a trial) were taken as learning indices. The number of avoidances represents a yes/no or discontinuous variable reflecting learning ability of the rats. In general, good learners perform more avoidances because they need fewer trials to learn to avoid footshock. Latency is a continuous variable measuring the time the rat is on the neutral platform without receiving footshock. Rats having the best memory or learning capacity spend more time on the neutral area. Therefore, latency is also an index of learning ability. Finally, when a drug increases the number of avoidances and mean trial latency in this paradigm, it means that this drug improves learning and memory function.
as §3

ICR inbred mice = settings: 1-3 mg/kg i.p. daily; cited from earlier work
splenic lymphocytes = settings: dose dependent; cited from earlier work
[4] = tested on: AA rats with experimental adjuvant arthritis; settings: rat, in vivo; cited from earlier work
splenic cells = settings: cited from earlier work
[5] = in words; cited from earlier work
[6] = tested on: rats (psychomotor coordination); assay: Psychomotor coordination (PMC) in rota-rod apparatus; assay type: in vivo, rat (female Sprague-Dawley); settings: for PMC: Psychomotor coordination: N = 6, mean ± SD
Procedure: as §1, §2
At one hour after treatment, psychomotor coordination (PMC) was evaluated in a rota-rod apparatus (Letica Scientifiic Instruments, Barcelona, Spain) which consists of a roller turning at a constant pre-selected velocity (4-40 rpm) or at an increasing velocity with constant acceleration (for example, from 4 to 40 rpm in 300 seconds), and four digital counters that are stopped when the rat falls from the rod and lowers a pedal. In this test, the animals ran on a rod with constant acceleration until they fell off because they are unable to run at the necessary velocity to maintain equilibrium. Generally, there are two main causes of low performance in this test 1) myorelaxation and 2) balance disorders, as in some vestibular and brain lesions. Improved performance is seen with drugs improving muscular strength, motor coordination and/or balance. Mean running time of five consecutive trials was taken as an index of PMC.
as §3

peritoneal macrophages = settings: dose dependent; cited from earlier work
[7] = 1.4 μg/kg i.p., 2 hours after treatment
[8] = 7.0 μg/kg i.p., * p < 0.05 vs control (0.0)

SMILES: COc1ccc2c(c1)c(CC(=O)O)c(C)n2C(=O)c1ccc(Cl)cc1 [indomethacin]
- ADAS [1]: only slight decrements
- BNT [1]: slight improvement
- MMSE [1]: almost no change
- TT [1]: only slight decrements

SMILES: CC(C)NCC(O)COc1cccc2[nH]ccc12 (stereo not shown) [pindolol]
- agitation and aggression (agitation and aggression): reported to help reduce agitation and aggression

SMILES: Nc1c2c(nc3ccccc13)CCCC2 [tacrine]
- cognitive and functional measures (patients with AD): improvement

SMILES: C[C@]12C=CC(=O)C=C1CC[C@@H]1[C@@H]2C(=O)C[C@@]2(C)[C@H]1CC[C@]2(O)C(=O)CO [prednisone]
- effect in AD patients (AD patients): no effect

SMILES: CC1=C(O)C(=O)C=C2C1=CC=C1[C@@]2(C)CC[C@@]2(C)[C@@H]3C[C@](C)(C(=O)O)CC[C@]3(C)CC[C@]12C [Celastrol]
- PMA vs untreated group, in words ([2]; 1.4 μg group, significance not reached): higher than for the untreated group
- PMA: Psychomotor activity ([2]; 1.4 μg/kg i.p.): 3011 ± 1185 I/O
- PMA: Psychomotor activity ([2]; 7.0 μg/kg i.p.): 2200 ± 1203 I/O
- PMA: Psychomotor activity ([2]; 35.0 μg/kg i.p.): 1637 ± 796 I/O
- four-footed (FF) activity (FIG. 12), in words ([2]; 1.4 and 7 μg groups): improved somewhat
- PMA (total activity, FIG. 10), in words ([2]; 1.4 and 7 μg treatment groups): fared somewhat better
- vertical activity (VA, FIG. 11), in words ([2]; 1.4 and 7 μg treatment groups vs no-treatment group): fared somewhat better than the no-treatment group
- PMA over the thirty minute test interval (FIG. 13), in words ([2]; all treatment groups): a general trend of decreasing activity during the test period
- dose of maximum effect on PMA ([2]; i.p.): 1.4 µg/kg
- Av: number of avoidances during 10 trials [3, 7]: 4.3 ± 2.1 n°
- La: mean latency time per trial [3, 7]: 18.3 ± 5.2 s
- Av, significance of difference ([3]; 7 μg group): reached significance
- La, significance of difference ([3]; 7 μg group): reached significance
- Av: number of avoidances during 10 trials [3, 8]: 5.1 ± 1.8 n°
- La: mean latency time per trial [3, 8]: 20.3 ± 2.8 s
- latency time on the neutral platform (FIG. 16), in words ([3]; 7.0 μg/kg treatment group): learned significantly more quickly to stay on the platform and avoid the shock
- La, significance of difference ([3]; 35 μg group): reached significance
- La: mean latency time per trial ([3]; 35.0 μg/kg i.p., 2 hours after treatment): 18.8 ± 4.6 s
- Av: number of avoidances during 10 trials ([3]; 35.0 μg/kg i.p., * p < 0.05 vs control (0.0)): 5.0 ± 1.4 n°
- numbers of complete avoidances during 10 trials (FIG. 15), in words ([3]; 7 and 35 μg treatment groups vs no-treatment group): scored significantly higher
- dose of maximum effect on PAB scores ([3]; i.p.): 7 µg/kg
- antibody formation (ICR inbred mice): reduced antibody formation very significantly
- circulating immune complex levels (ICR inbred mice): decreased circulating immune complex levels
- serum complement (ICR inbred mice): increased serum complement
- Con A-induced IL-2 production (splenic lymphocytes): decreased
- joint edema [4]: reduced joint edema
- lipid-peroxidation and free radical formation [4]: inhibition of lipid-peroxidation and free radical formation
- concentration of optimal effects on mitogen-induced splenic cell proliferation (splenic cells; PHA, Con A, LPS and PWM): 0.1 µg/mL
- proliferation of splenic cells induced by mitogens PHA, Con A, LPS and PWM (splenic cells; in words): inhibited proliferation
- insecticidal activity [5]: insecticidal inert
- PMC: Psychomotor coordination ([6]; 1.4 μg/kg i.p., 1 hour after treatment): 99.4 ± 19.2 sec/trial
- PMC, significance of difference ([6]; 7 μg group): reached significance
- PMC: Psychomotor coordination ([6]; 7.0 μg/kg i.p., ** p < 0.01 vs control (0.0)): 126.3 ± 37.6 sec/trial
- PMC: Psychomotor coordination ([6]; 35.0 μg/kg i.p., 1 hour after treatment): 106.5 ± 21.3 sec/trial
- PMC (FIG. 14), in words ([6]; 1.4, 7 and 35 μg treatment groups vs no-treatment group): all scored better than the no-treatment group
- dose of maximum effect on PMC ([6]; i.p.): 7 µg/kg
- LPS-induced IL-1 production (peritoneal macrophages): decreased

SMILES: O=C1CC2(CCCC2)CC(=O)N1CCCCN1CCN(c2ncccn2)CC1 [buspirone]
- agitation and aggression (agitation and aggression): reported to help reduce agitation and aggression

SMILES: CC(C)NCC(O)COc1cccc2ccccc12 (stereo not shown) [Propranolol]
- agitation and aggression (agitation and aggression): reported to help reduce agitation and aggression
